Laboratory results reported in patent publication US11458138B2 (Novartis AG, priority 2017, dated 2022).

How the values were obtained:
[1] = molecular target: LATS1 (Homo sapiens (Human), UniProt O95835); experiment: LATS1 biochemical assay (Table 1A, Compound Examples 1-290; method in the earlier part)
[2] = tested on: Phospho-YAP (SER127) in HaCaT cells; experiment: pYAP HTRF Assay (HaCaT Cells); type: cell-based, human; conditions: Homo sapiens, 2 hours
Summary of the method: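 Phospho-YAP (Ser127) was measured by HTRF (665 nm/620 nm ratio) in HaCaT cells. Cells were grown 48 hours at 37° C at 5500 cells/well, exposed to compound for 2 hours, and incubated with detection reagents for 20 hrs at room temperature.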

[3] = tested on: Phospho-YAP (Ser127) in JHH-5 cells; experiment: pYAP HTRF Assay (JHH-5 cells); type: cell-based; conditions: 2 hours
Procedure: Briefly, JHH-5 cells are suspended at 0.48×10^6 cells/ml in William's E medium without phenol-red (Thermo Fisher Scientific Gibco catalog number A1217601) supplemented with 10% (v/v) heat-inactivated fetal bovine serum (Thermo Fisher Scientific Gibco catalog number 16140071) and penicillin-streptomycin at 100 U/ml each (Thermo Fisher Scientific Gibco catalog number 15140122). Cells are dispensed into 384well clear bottom culture plates (50 ul/well, at 24000 cells per well, Greiner catalog number 781091), and incubated for 24 hours in a cell culture incubator at 37° C. Test compounds are transferred into culture plates containing JHH-5 cells using an Echo550 (Labcyte) acoustic dispenser (50 nl/well), followed by incubation for 2 hours at 37° C. Lysis buffer (part of CisBio kit catalog number 64YAPPEI) is added to the assay plates as a four-fold concentrate (corresponding to 16 ul/well) and incubated for 30 minutes at room temperature with agitation. Lysate is transferred from culture plates into white low-volume 384well assay plates (12 ul/well, Greiner catalog number 784075), followed by the addition of 3 ul/well of detection antibodies (part of CisBio kit catalog number 64YAPPEI: 1:40 dilution of each pYAP d2 antibody and pYAP cryptate antibody stocks). The plates are sealed and incubated overnight (18 hours) at room temperature protected from light. Plates are read on an EnVision plate reader (Perkin Elmer) at emission wavelengths of 665 nm and 620 nm. The HTRF signal ratio x per well is calculated as [x=Signal(665 nm)/Signal(620 nm)×10000] as specified in the manufacturer's protocol.

[4] = tested on: YAP nuclear translocation in HaCaT cells; experiment: YAP Translocation Assay (HaCaT Cells); type: cell-based, human; conditions: Homo sapiens, 24 hours
Summary of the method: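 HaCaT cells (20,000/well) in DMEM + 10% FBS were plated overnight at 37° C, then exposed to compound for 24 h at 37° C. Cells were fixed with PFA, permeabilized with 0.1% Triton/1.5% BSA and imaged by high-content imaging.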

Chain of LATS1 (O95835 whole entry, looked up): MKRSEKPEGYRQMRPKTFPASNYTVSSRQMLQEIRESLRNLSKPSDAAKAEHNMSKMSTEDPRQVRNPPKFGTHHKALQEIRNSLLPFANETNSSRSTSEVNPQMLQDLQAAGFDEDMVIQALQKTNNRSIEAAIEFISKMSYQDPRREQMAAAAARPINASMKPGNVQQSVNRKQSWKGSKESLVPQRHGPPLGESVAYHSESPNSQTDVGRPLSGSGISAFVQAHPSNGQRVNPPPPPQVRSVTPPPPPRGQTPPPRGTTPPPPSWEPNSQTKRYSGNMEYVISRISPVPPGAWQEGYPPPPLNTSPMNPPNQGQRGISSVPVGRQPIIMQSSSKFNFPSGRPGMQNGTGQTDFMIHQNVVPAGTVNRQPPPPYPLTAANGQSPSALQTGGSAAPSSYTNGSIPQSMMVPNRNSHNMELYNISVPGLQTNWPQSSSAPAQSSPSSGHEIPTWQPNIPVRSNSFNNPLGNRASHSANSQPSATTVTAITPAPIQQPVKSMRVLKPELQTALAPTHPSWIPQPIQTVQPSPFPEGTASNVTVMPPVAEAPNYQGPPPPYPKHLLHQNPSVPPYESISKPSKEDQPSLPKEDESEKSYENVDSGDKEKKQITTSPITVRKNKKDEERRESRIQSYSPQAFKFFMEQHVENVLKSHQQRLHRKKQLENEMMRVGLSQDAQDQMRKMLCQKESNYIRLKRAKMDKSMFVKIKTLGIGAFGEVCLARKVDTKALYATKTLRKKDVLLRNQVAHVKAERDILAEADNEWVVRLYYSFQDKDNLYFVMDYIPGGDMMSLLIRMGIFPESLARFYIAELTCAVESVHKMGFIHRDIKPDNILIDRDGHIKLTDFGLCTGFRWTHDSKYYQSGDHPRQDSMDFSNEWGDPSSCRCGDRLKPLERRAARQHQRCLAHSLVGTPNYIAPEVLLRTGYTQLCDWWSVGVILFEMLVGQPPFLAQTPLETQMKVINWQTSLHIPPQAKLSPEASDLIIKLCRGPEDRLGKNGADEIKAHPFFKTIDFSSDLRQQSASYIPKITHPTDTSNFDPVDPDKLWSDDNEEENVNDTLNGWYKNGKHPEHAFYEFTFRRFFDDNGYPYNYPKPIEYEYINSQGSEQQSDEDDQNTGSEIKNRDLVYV
Chain of LATS1 (Q7L9L4 whole entry partner, looked up): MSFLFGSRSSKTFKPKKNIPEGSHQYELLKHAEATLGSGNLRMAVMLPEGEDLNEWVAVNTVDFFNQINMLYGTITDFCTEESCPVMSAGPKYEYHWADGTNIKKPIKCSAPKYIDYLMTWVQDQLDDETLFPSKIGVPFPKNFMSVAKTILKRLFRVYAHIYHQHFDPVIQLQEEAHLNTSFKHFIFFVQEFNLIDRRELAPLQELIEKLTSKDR

SMILES | IC50 [1] | IC50 [2] | IC50 [3] | EC50 [4]
CC(C)N(C)c1nc(-c2ccncc2F)nc2cnccc12 [Example 122, 2-(3-fluoropyridin-4-yl)-N-methyl-N-(propan-2-yl)pyrido[3,4-d]pyrimidin-4-amine] | 15 nM | 7400 nM | 8000 nM | 5800 nM
COCCC(C)(C)Nc1nc(-c2ccncc2)nc2cnccc12 [Example 8, N-(4-methoxy-2-methylbutan-2-yl)-2-(pyridin-4-yl)pyrido[3,4-d]pyrimidin-4-amine] | 3 nM | 198 nM | 1900 nM | 1200 nM
CCC(C)(C)Nc1nc(-c2ccncc2Cl)nc2cnccc12 [Example 118, 2-(3-chloropyridin-4-yl)-N-(2-methylbutan-2-yl)pyrido[3,4-d]pyrimidin-4-amine] | 5 nM | 2050 nM | 4000 nM | 5010 nM
Cc1cnccc1-c1nc(NC(C)(C)C)c2ccncc2n1 [Example 117, N-tert-butyl-2-(3-methylpyridin-4-yl)pyrido[3,4-d]pyrimidin-4-amine] | 4 nM | 2310 nM | > 10000 nM | 4470 nM
CC(C)(Cc1c[nH]c2ccccc12)Nc1nc(-c2ccncc2)nc2cnccc12 [Example 79, N-[1-(1H-indol-3-yl)-2-methylpropan-2-yl]-2-(pyridin-4-yl)pyrido[3,4-d]pyrimidin-4-amine] | 11 nM | 765 nM | 2100 nM | 3870 nM
CC(C)(Nc1nc(-c2ccncc2F)nc2cnccc12)C(F)(F)F [Example 134, 2-(3-fluoropyridin-4-yl)-N-(1,1,1-trifluoro-2-methylpropan-2-yl)pyrido[3,4-d]pyrimidin-4-amine] | 1 nM | 539 nM | 1000 nM | 1190 nM
CCN(CC)c1nc(-c2ccncc2)nc2cnccc12 [Example 2] | 1 nM | 67 nM | > 10000 nM | 584 nM
COCC(C)(C)Nc1cc(-c2ccncc2)nc2cnccc12 [Example 258, N-(1-methoxy-2-methylpropan-2-yl)-2-(pyridin-4-yl)-1,7-naphthyridin-4-amine] | 23 nM | – | > 10000 nM | 9920 nM
CC(C)(Nc1nc(-c2ccncc2)nc2cnccc12)C1CCCCC1 [Example 15, N-(2-cyclohexylpropan-2-yl)-2-(pyridin-4-yl)pyrido[3,4-d]pyrimidin-4-amine] | 4 nM | 660 nM | 4100 nM | 3480 nM
CCC(C)(C)Nc1cc(-c2ccncc2F)nc2cnccc12 [Example 281, 2-(3-fluoropyridin-4-yl)-N-(2-methylbutan-2-yl)-1,7-naphthyridin-4-amine] | 4 nM | 656 nM | 5900 nM | 2890 nM
CC(C)(C)Nc1cc(-c2ccnc(N)c2)nc2cnccc12 [Example 274, 2-(2-aminopyridin-4-yl)-N-tert-butyl-1,7-naphthyridin-4-amine] | 13 nM | – | > 10000 nM | 17300 nM
CC[C@H](C)Nc1cc(-c2ccncc2)nc2cnccc12 [Example 256, N-[(2S)-butan-2-yl]-2-(pyridin-4-yl)-1,7-naphthyridin-4-amine] | 8 nM | 11100 nM | > 10000 nM | 15600 nM
c1cc(-c2cc(NC3CCCC3)c3ccncc3n2)ccn1 [Example 264, N-cyclopentyl-2-(pyridin-4-yl)-1,7-naphthyridin-4-amine] | – | 14800 nM | > 10000 nM | 11200 nM
CC1(C)CC(O)CCN1c1cc(-c2ccncc2Cl)nc2cnccc12 (stereo not shown) [Example 283, 1-[2-(3-chloropyridin-4-yl)-1,7-naphthyridin-4-yl]-2,2-dimethylpiperidin-4-ol] | – | 8250 nM | > 10000 nM | 14200 nM
CCCNc1cc(-c2ccncc2)nc2cnccc12 [Example 268, N-propyl-2-(pyridin-4-yl)-1,7-naphthyridin-4-amine] | 18 nM | – | > 10000 nM | > 20000 nM
